Patent publication US9169252B2 (BRISTOL-MYERS SQUIBB COMPANY, priority 2014, dated 2015)
pEC50, pIC50: −log10 of the molar value. Read-outs that look alike come from different tables or passages of the source.

Experiments:
IRAK4 = IRAK4 (Homo sapiens (Human), UniProt Q9NWZ3); experiment: IRAK4 Inhibition Assay; assay type: biochemical; conditions: ATP 500 μM, read-out: IRAK4 IC50
Method in brief: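 IRAK4 combined with fluorescent substrate and compounds, reacted 60 min at room temperature, stopped with 35 mM EDTA. Substrate and phosphorylated product separated electrophoretically on a Caliper LabChip 3000 mobility-shift reader.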

[1] = tested on: TLR2 induced IL-6 in peripheral blood mononuclear cells (PBMCs); experiment: PBMC TLR2 Induced IL-6 Assay; assay type: cell-based, human; conditions: for pIC50: read-out: Cell IC50; for pEC50: read-out: Cell EC50
Method in brief: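 Lipoteichoic acid at 10 µg/ml served as TLR2 stimulus for 5 hours, following a 30-minute compound pretreatment at 37° C. Cells were Ficoll-isolated human PBMCs, 250000 cells/well, cultured in RPMI plus 10% heat-inactivated FCS.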

[2] = Homo sapiens, PBMC, human PBMCs, lipoteichoic acid stimulated, IL-6 by ELISA
[3] = Homo sapiens, PBMC, PBMC TLR2 Induced IL-6 Assay, lipoteichoic acid stimulation, IL-6 by ELISA
[4] = PBMC TLR2 Induced IL-6 Assay, lipoteichoic acid stimulation, IL-6 by ELISA

IRAK4, sequence (Q9NWZ3 whole entry, species assumed): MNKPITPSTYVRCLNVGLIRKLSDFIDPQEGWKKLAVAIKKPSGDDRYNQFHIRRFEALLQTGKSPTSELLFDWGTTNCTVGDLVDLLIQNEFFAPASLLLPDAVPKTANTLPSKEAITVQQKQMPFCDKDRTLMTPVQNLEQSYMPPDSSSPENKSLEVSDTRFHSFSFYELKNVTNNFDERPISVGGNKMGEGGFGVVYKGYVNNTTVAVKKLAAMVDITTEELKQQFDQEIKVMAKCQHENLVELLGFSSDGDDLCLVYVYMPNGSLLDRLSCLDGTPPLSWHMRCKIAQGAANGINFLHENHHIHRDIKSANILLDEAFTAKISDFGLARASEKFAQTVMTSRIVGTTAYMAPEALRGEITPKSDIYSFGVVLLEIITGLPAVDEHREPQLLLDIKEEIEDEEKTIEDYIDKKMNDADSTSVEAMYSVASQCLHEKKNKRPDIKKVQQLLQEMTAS

| SMILES | pIC50 (IRAK4; IRAK4 Inhibition Assay) | pEC50 [1, 3] | pIC50 [1, 3] | other results |
| --- | --- | --- | --- | --- |
| Cn1cc(-c2ccc(Nc3cc(-n4ncc5cc(C#N)cnc54)ncc3C(=O)NC[C@@H](F)C(C)(C)O)cc2)cn1 [Example 531] | – | – | – | pIC50 (IRAK4; IRAK4 0.6 nM): 8.66; pIC50 [1, 2]: 7.17 |
| CNC(=O)[C@H]1CC[C@H](NC(=O)c2cnc(-n3ccc4cncnc43)cc2NC(C)C)CC1 [Example 81, 4-(isopropylamino)-N-((trans)-4-(methylcarbamoyl)cyclohexyl)-6-(7H-pyrrolo[2,3-d]pyrimidin-7-yl)nicotinamide] | 7.85 | 6.92 | 6.25 | – |
| C[C@H](CF)Nc1cc(-n2ccc3cc(C#N)cnc32)ncc1C(=O)NC[C@@H](F)C(C)(C)O [Example 118, 6-(5-cyano-1H-pyrrolo[2,3-b]pyridin-1-yl)-N—((R)-2-fluoro-3-hydroxy-3-methylbutyl)-4-(((R)-1-fluoropropan-2-yl)amino)nicotinamide] | 8.74 | 7.74 | – | – |
| CC(C)(O)[C@H](F)CNC(=O)c1cnc(-n2ccc3cc(C#N)cnc32)cc1NC12CCC(O)(CC1)C2 [Example 16, (R)-6-(5-cyano-1H-pyrrolo[2,3-b]pyridin-1-yl)-N-(2-fluoro-3-hydroxy-3-methylbutyl)-4-((4-hydroxybicyclo[2.2.1]heptan-1-yl)amino)nicotinamide] | 8.92 | 7.82 | – | – |
| CCNC(=O)CCNC(=O)c1cnc(-n2ncc3cc(C#N)cnc32)cc1NC(C)C [Example 212] | 7.91 | 6.72 | – | – |
| CC(C)(O)[C@H](F)CNC(=O)c1cnc(-n2ccc3cc(C#N)cnc32)cc1NC1CC(F)(F)C1 [Example 53, (R)-6-(5-cyano-1H-pyrrolo[2,3-b]pyridin-1-yl)-4-((3,3-difluorocyclobutyl)amino)-N-(2-fluoro-3-hydroxy-3-methylbutyl)nicotinamide] | 8.72 | 6.57 | – | – |
| CC(C)(O)[C@H](F)CNC(=O)c1cnc(-n2ncc3cc(C#N)cnc32)cc1Nc1cnn(CCC#N)c1 [Example 376] | 8.68 | – | 6.46 | – |
| CC(C)Nc1cc(-n2ncc3cc(C#N)cnc32)ncc1C(=O)N[C@@H]1CC[C@@H](C(C)(C)O)OC1 [Example 296] | 8.15 | – | 6.39 | – |
| CC(C)(O)[C@H](F)CNC(=O)c1cnc(-n2ccc3cc(C#N)cnc32)cc1NC[C@@H](F)C(C)(C)O [Example 52, 6-(5-cyano-1H-pyrrolo[2,3-b]pyridin-1-yl)-N—((R)-2-fluoro-3-hydroxy-3-methylbutyl)-4-(((R)-2-fluoro-3-hydroxy-3-methylbutyl)amino)nicotinamide] | 8.62 | 7.18 | – | – |
| CCCNc1cc(-n2ncc3cc(C#N)c(N)nc32)ncc1C(=O)NC[C@@H](F)C(C)(C)O [Example 578] | – | – | – | pIC50 (IRAK4; IRAK4 0.6 nM): 8.59; pIC50 [1, 2]: 6.66 |
| CC(C)(O)[C@H](F)CNC(=O)c1cnc(-n2ccc3cc(C#N)cnc32)cc1NC1CCN(S(C)(=O)=O)CC1 [Example 463] | – | – | – | pIC50 (IRAK4; IRAK4 0.6 nM): 8.77; pEC50 [1, 2]: 7.64 |
| CCn1cc(Nc2cc(-n3cnc4cc(Cl)cnc43)ncc2C(=O)NC[C@@H](F)C(C)(C)O)cn1 [Example 361] | 8.54 | – | 6.69 | – |
| CC(C)Nc1cc(-n2ncc3cc(C#N)cnc32)ncc1C(=O)NCCc1ccc(F)cc1 [Example 260] | 8.48 | – | 6.80 | – |
| C[C@@H](F)CNc1cc(-n2ncc3cc(C#N)c(N)nc32)ncc1C(=O)NC[C@@H](F)C(C)(C)O [Example 591] | – | – | – | pIC50 (IRAK4; IRAK4 0.6 nM): 8.57; pIC50 [1, 2]: 6.80 |
| CNC(=O)[C@H]1CC[C@H](NC(=O)c2cnc(-n3ncc4cc(C#N)cnc43)cc2NC2CC2)CC1 [Example 140, 6-(5-cyano-1H-pyrazolo[3,4-b]pyridin-1-yl)-4-(cyclopropylamino)-N-((trans)-4-(methylcarbamoyl)cyclohexyl)nicotinamide] | 8.08 | 6.65 | – | – |
| CC(C)Nc1cc(-n2ncc3cc(C#N)cnc32)ncc1C(=O)NC[C@H](F)C(C)(C)O [Example 196] | 7.98 | 6.52 | 6.48 | – |
| CC(C)(O)[C@H](F)CNC(=O)c1cnc(-n2ncc3cc(C#N)cnc32)cc1NCCCF [Example 595] | – | – | – | pIC50 (IRAK4; IRAK4 0.6 nM): 8.28; pIC50 [1, 2]: 6.89 |
| CCNC(=O)n1cc(Nc2cc(-n3ncc4cc(C#N)cnc43)ncc2C(=O)NC[C@@H](F)C(C)(C)O)cn1 [Example 386] | 8.82 | 7.10 | 5.97 | – |
| CCCC(=O)NCc1cnc2c(ccn2-c2cc(NC(C)C)c(C(=O)NC[C@@H](F)C(C)(C)O)cn2)c1 [Example 510] | – | – | – | pIC50 (IRAK4; IRAK4 0.6 nM): 8.49; pIC50 [1, 2]: 6.60 |
| CC(C)(O)[C@H](F)CNC(=O)c1cnc(-n2ncc3cc(C#N)cnc32)cc1NCC1CC1 [Example 605] | – | – | – | pIC50 (IRAK4; IRAK4 0.6 nM): 8.12; pIC50 [1, 2]: 6.78 |
| CC(C)Nc1cc(-n2ncc3cc(C#N)c(N)nc32)ncc1C(=O)NC[C@@H](C)F [Example 328] | 8.00 | – | 7.96 | – |
| CC(C)(O)[C@H](F)CNC(=O)c1cnc(-n2ncc3cc(C#N)cnc32)cc1N[C@H]1CC[C@H](C(C)(C)O)CC1 [Example 606, 6-(5-Cyano-1H-pyrazolo[3,4-b]pyridin-1-yl)-N—((R)-2-fluoro-3-hydroxy-3-methylbutyl)-4-(((1r,4R)-4-(2-hydroxypropan-2-yl)cyclohexyl)amino)nicotinamide] | – | – | – | pIC50 (IRAK4; IRAK4 0.6 nM): 8.40; pEC50 [1, 2]: 6.90 |
| CC(C)Nc1cc(-n2ncc3cc(C#N)cnc32)ncc1C(=O)NCCC1(O)CCNC1 (centres unmarked) [Example 255] | 8.12 | 6.48 | – | – |
| CC(C)Nc1cc(-n2ccc3cc(C#N)cnc32)ncc1C(=O)N[C@H]1CC[C@H](C(C)(C)O)C1 [Example 497] | – | – | – | pIC50 (IRAK4; IRAK4 0.6 nM): 8.43; pIC50 [1, 2]: 7.01 |
| CC(C)Nc1cc(-n2ccc3cc(CNC(=O)OC(C)C)cnc32)ncc1C(=O)NC[C@@H](F)C(C)(C)O [Example 502] | – | – | – | pIC50 (IRAK4; IRAK4 0.6 nM): 8.32; pIC50 [1, 2]: 6.44 |
| CC(C)(O)C(F)(F)CNC(=O)c1cnc(-n2ncc3cc(C#N)cnc32)cc1Nc1cnn(CC(F)F)c1 [Example 397] | – | – | – | pIC50 (IRAK4; IRAK4 0.6 nM): 8.18; pIC50 [1, 2]: 6.68 |
| CCOP(=O)(CCNC(=O)c1cnc(-n2ncc3cc(C#N)cnc32)cc1NC(C)C)OCC [Example 208] | 7.80 | – | – | pEC50 ([1]; Homo sapiens, PBMC): 6.62 |

The next lines start with results.

| pIC50 (IRAK4; IRAK4 Inhibition Assay) | SMILES | pEC50 [1, 3] | pIC50 [1, 3] | other results |
| --- | --- | --- | --- | --- |
| 7.71 | CNC(=O)C[C@H]1CC[C@H](NC(=O)c2cnc(-n3ncc4cc(C#N)cnc43)cc2NC(C)C)CC1 [Example 218] | 6.95 | – | – |
| 8.40 | CCCNC(=O)c1cnc(-n2ncc3cc(C#N)cnc32)cc1Nc1cnn(CC(F)F)c1 [Example 389] | – | 6.62 | – |
| 8.19 | CC(C)Nc1cc(-n2ncc3cc(C#N)cnc32)ncc1C(=O)NCCC(C)NS(C)(=O)=O (centres unmarked) [Example 264] | – | 6.47 | – |
| 8.68 | CC(C)(O)CNc1cc(-n2ccc3cc(Cl)cnc32)ncc1C(=O)NC[C@@H](F)C(C)(C)O [Example 35, (R)-6-(5-chloro-1H-pyrrolo[2,3-b]pyridin-1-yl)-N-(2-fluoro-3-hydroxy-3-methylbutyl)-4-((2-hydroxy-2-methylpropyl)amino)nicotinamide] | 6.93 | 6.34 | – |
| 8.89 | CC(C)(O)[C@H](F)CNC(=O)c1cnc(-n2cnc3cc(Cl)cnc32)cc1Nc1cnn(CC(F)F)c1 [Example 359] | – | 7.08 | – |
| 9.00 | CC(C)(O)[C@H](F)CNC(=O)c1cnc(-n2ccc3cc(C#N)cnc32)cc1NC1CCC1 [Example 6, (R)-6-(5-cyano-1H-pyrrolo[2,3-b]pyridin-1-yl)-4-(cyclobutylamino)-N-(2-fluoro-3-hydroxy-3-methylbutyl) nicotinamide] | 6.61 | 6.61 | – |
| 8.00 | CC(C)(O)[C@H](F)CNC(=O)c1cnc(-n2cnc3cc(Cl)cnc32)cc1NC1COC1 [Example 340] | 6.27 | – | – |
| 7.88 | CC(C)Nc1cc(-n2ccc3cc(C#N)cnc32)ncc1C(=O)NC1CCc2nc(N)sc2C1 (centres unmarked) [Example 73, N-(2-amino-4,5,6,7-tetrahydrobenzo[d]thiazol-6-yl)-6-(5-cyano-1H-pyrrolo[2,3-b]pyridin-1-yl)-4-(isopropylamino)nicotinamide] | 6.72 | – | – |
| 8.28 | CC(C)(O)[C@H](F)CNC(=O)c1cnc(-n2ccc3cc(Cl)cnc32)cc1NC1CC1 [Example 34, (R)-6-(5-chloro-1H-pyrrolo[2,3-b]pyridin-1-yl)-4-(cyclopropylamino)-N-(2-fluoro-3-hydroxy-3-methylbutyl)nicotinamide] | 6.74 | 6.39 | – |
| 8.85 | CCCn1cc(Nc2cc(-n3ccc4cc(C#N)cnc43)ncc2C(=O)NC[C@@H](F)C(C)(C)O)cn1 [Example 383] | – | 6.95 | – |
| 8.16 | CC(C)Nc1cc(-n2ncc3cc(C#N)cnc32)ncc1C(=O)Nc1ccc(N(C)C)nc1 [Example 228] | 6.79 | – | – |
| 8.19 | CC(C)Nc1cc(-n2ncc3cc(C#N)cnc32)ncc1C(=O)NCCC1CCCCO1 (centres unmarked) [Example 220] | 6.77 | – | – |
| 7.83 | CC(C)Nc1cc(-n2ncc3cc(C#N)cnc32)ncc1C(=O)NCCNS(C)(=O)=O [Example 219] | 6.30 | 6.17 | – |
| 8.42 | CC(C)(O)[C@H](F)CNC(=O)c1cnc(-n2ncc3cc(C#N)cnc32)cc1NC1CC1 [Example 336] | – | 6.25 | pEC50 [1, 4]: 6.77 |
| 8.19 | CC(C)(O)[C@H](F)CNC(=O)c1cnc(-n2ncc3cc(C#N)cnc32)cc1NC1CCCOC1 (single isomer, unassigned) [Example 143] | – | – | pEC50 [1, 4]: 6.73 |
